The values that follow come from patent US11612606B2, “8-aminoisoquinoline compounds and uses thereof” (priority 2018, dated 2023).

The target of this test is HPK full length, T165E S171E (Homo sapiens (Human), UniProt Q92918, S171E/T165E). Kind of test: HPK1-FL HTRF enzymatic assay ("HTRF"). In kind it is biochemical. The conditions noted are these: ATP 1 mM. Here is the method:
Assay Principle: HPK-FL enzyme phosphorylates Biotin-SLP-76 substrate in the presence of ATP at […] and varying concentrations of test compound. Product is detected by FRET using Eu-anti-pSLP76 Ab and SA-XL665. Also see www.cisbio.com/HTRF for additional HTRF technology information.
Instrumentation: Echo555 compound dispenser; Agilent Bravo; Perkin Elmer Envision.
To a 384 well Proxiplate with 80 nL compound or DMSO spotted on was added 4 μl/well kinase mix. The mixture was preincubated for 30 minutes and then 4 μl/well substrate mix was added. The solution was incubated for 60 min and then 4 μl/well detection mix was added. The solution was incubated for another 60 min.
Exemplary compounds were tested in the HTRF binding assays.
Background: In TR-FRET formats the signal depends on donor and acceptor labels being close together.

Where a name gives a salt, the structure may show the parent alone. Read-outs that look alike come from different tables or passages of the source.

Chain of HPK full length, T165E S171E (Q92918 whole entry T165E/S171E, looked up): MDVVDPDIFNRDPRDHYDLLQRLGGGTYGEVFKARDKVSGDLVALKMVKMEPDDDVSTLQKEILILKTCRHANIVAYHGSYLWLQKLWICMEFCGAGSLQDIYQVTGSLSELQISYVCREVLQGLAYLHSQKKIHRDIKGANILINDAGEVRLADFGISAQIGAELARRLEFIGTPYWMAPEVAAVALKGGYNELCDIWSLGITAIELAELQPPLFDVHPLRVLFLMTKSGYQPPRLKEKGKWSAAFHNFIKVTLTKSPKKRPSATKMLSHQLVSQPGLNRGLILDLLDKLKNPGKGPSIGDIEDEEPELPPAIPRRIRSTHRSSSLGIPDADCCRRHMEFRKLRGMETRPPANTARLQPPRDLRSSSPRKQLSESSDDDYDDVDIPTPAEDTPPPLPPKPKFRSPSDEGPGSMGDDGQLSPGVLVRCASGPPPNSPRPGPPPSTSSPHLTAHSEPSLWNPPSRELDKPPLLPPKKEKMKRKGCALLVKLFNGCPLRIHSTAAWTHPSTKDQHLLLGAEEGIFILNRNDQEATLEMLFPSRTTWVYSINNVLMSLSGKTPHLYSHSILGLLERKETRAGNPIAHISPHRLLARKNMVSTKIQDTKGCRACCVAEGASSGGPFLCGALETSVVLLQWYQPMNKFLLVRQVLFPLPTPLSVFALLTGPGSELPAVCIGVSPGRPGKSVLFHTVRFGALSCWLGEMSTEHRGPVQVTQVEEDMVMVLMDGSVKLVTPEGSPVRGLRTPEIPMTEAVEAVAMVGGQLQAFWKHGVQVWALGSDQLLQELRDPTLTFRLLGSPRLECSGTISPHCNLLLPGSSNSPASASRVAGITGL

As to `Cc1c(-c2cc3cc(NC(=O)O[C@H]4COC[C@@H]4C)ncc3c(N)c2F)cnc2c1NC[C@H](F)O2` (single isomer, unassigned) [Compound 567a], under “read-out: HPK1 Ki”, the Ki – broadly, a dissociation constant, usually derived from enzyme kinetics or from competition with a known ligand – was found to be 0.33 nM.

Regarding `Cc1c(-c2cc3cc(NC(=O)O[C@@H]4CC(=O)N(C(C)C)C4)ncc3c(N)c2F)cnc2c1NCCO2` (single isomer, unassigned) [Compound 479b], the inhibitory constant (Ki) (read-out: HPK1 Ki) is below 0.013 nM.

As to `CCNC(=O)Nc1cc2cc(-c3cnc4c(c3C)NCCO4)c(F)c(N)c2cn1` [Compound 720, 1-(8-Amino-7-fluoro-6-(8-methyl-2,3-dihydro-1H-pyrido[2,3-b][1,4]oxazin-7-yl)isoquinolin-3-yl)-3-ethylurea], the Ki (read-out: HPK1 Ki) was below 0.013 nM.

As to `Cc1c(-c2cc3cc(NC(=O)OC4CN(C(C)C)C4)ncc3c(N)c2F)cnc2c1NCCO2` [Compound 419, (1-Isopropylazetidin-3-yl) N-[8-amino-7-fluoro-6-(8-methyl-2,3-dihydro-1H-pyrido[2,3-b][1,4]oxazin-7-yl)-3-isoquinolyl]carbamate], the Ki (read-out: HPK1 Ki) came out at 0.061 nM.

As for `CO[C@]1(C)C[C@H](OC(=O)Nc2cc3cc(-c4cnc5c(c4C)NCCO5)c(F)c(N)c3cn2)C1` [Compound 528a, (1s,3s)-3-Methoxy-3-methyl cyclobutyl (8-amino-7-fluoro-6-(8-methyl-2,3-dihydro-1H-pyrido[2,3-b][1,4]oxazin-7-yl)isoquinolin-3-yl)carbamate], the Ki (read-out: HPK1 Ki) was below 0.013 nM.

For the compound `Cc1c(-c2cc3cc(NC(=O)O[C@H]4CCC5(CCN(C6COC6)CC5)C4)ncc3c(N)c2F)cnc2c1NCCO2` (single isomer, unassigned) [Compound 511b], the Ki (read-out: HPK1 Ki) was 0.017 nM.

Consider `Cc1c(-c2cc3cc(NC(=O)N[C@@H]4CCC[C@@H]4F)ncc3c(N)c2F)cnc2c1NCCO2` [Compound 727a, 1-[8-Amino-7-fluoro-6-(8-methyl-2,3-dihydro-1H-pyrido[2,3-b][1,4]oxazin-7-yl)-3-isoquinolyl]-3-[(1R,2S)-2-fluorocyclopentyl]urea], for which the Ki (read-out: HPK1 Ki) was below 0.013 nM.

Take `Cc1c(-c2cc3cc(NC(=O)O[C@@H]4CC[C@@](C)(O)C4)ncc3c(N)c2F)cnc2c1NCCO2` (single isomer, unassigned) [Compound 533a, hydrochloride]: where the note is “read-out: HPK1 Ki”, the Ki stood at 0.035 nM.

`Cc1c(-c2cc3cc(NC(=O)N[C@@H]4COC[C@@H]4F)ncc3c(N)c2F)cnc2c1NCCO2` (single isomer, unassigned) [Compound 724b]: the Ki (read-out: HPK1 Ki) came out at 0.019 nM.

For the compound `Cc1c(-c2cc3cc(NC(=O)OC4CCS(=O)(=O)CC4)ncc3c(N)c2F)cnc2c1NCCC2` [Compound 579, 1,1-Dioxidotetrahydro-2H-thiopyran-4-yl (8-amino-7-fluoro-6-(4-methyl-5,6,7,8-tetrahydro-1,5-naphthyridin-3-yl)isoquinolin-3-yl)carbamate], the Ki (read-out: HPK1 Ki) is 0.85 nM.

As to `Cc1c(-c2cc3cc(NC(=O)O[C@@H]4COC[C@H]4C)ncc3c(N)c2F)cnc2c1NCCO2` (racemic) [Compound 441ab, (±)-trans-4-Methyltetrahydrofuran-3-yl (8-amino-7-fluoro-6-(8-methyl-2,3-dihydro-1H-pyrido[2,3-b][1,4]oxazin-7-yl)isoquinolin-3-yl)carbamate], the Ki (read-out: HPK1 Ki) worked out at 0.037 nM.

On to `Cc1c(-c2cc3cc(NC(=O)OC4CC(O)(C5CC5)C4)ncc3c(N)c2F)cnc2c1NCCO2` (stereo not shown) [Compound 551a, (3-Cyclopropyl-3-hydroxy-cyclobutyl) N-[8-amino-7-fluoro-6-(8-methyl-2,3-dihydro-1H-pyrido[2,3-b][1,4]oxazin-7-yl)-3-isoquinolyl]carbamate], for which the Ki (read-out: HPK1 Ki) is below 0.013 nM.

Consider `Cc1c(-c2cc3cc(NC(=O)O[C@@H]4COC[C@H]4C)ncc3c(N)c2F)cnc2c1NC(=O)CO2` (single isomer, unassigned) [Compound 558b, hydrochloride], for which the Ki (read-out: HPK1 Ki) was determined as 3.75 nM.

With `Cc1c(-c2cc3cc(NC(=O)O[C@H]4CC(=O)N(C(C)C)C4)ncc3c(N)c2F)cnc2c1NCCO2` (single isomer, unassigned) [Compound 479a], the Ki (read-out: HPK1 Ki) is 0.021 nM.

`Cc1c(-c2cc3cc(NC(=O)O[C@@H]4CCOC4)ncc3c(N)c2F)cnc2c1[C@H](O)CC2` [Compound 548b, (R)-tetrahydrofuran-3-yl (8-amino-7-fluoro-6-((R)-5-hydroxy-4-methyl-6,7-dihydro-5H-cyclopenta[b]pyridin-3-yl)isoquinolin-3-yl)carbamate]: the Ki (read-out: HPK1 Ki) amounted to 93 nM.

For `CC(=O)N1CC2(CC(OC(=O)Nc3cc4cc(-c5cnc6c(c5C)NCCO6)c(F)c(N)c4cn3)C2)C1` [Compound 424, 2-Acetyl-2-azaspiro[3.3]heptan-6-yl (8-amino-7-fluoro-6-(8-methyl-2,3-dihydro-1H-pyrido[2,3-b][1,4]oxazin-7-yl)isoquinolin-3-yl)carbamate], for the setting “read-out: HPK1 Ki”, the Ki was below 0.013 nM.

For `Cc1c(-c2cc3cc(NC(=O)OC4CN(C(=O)[C@H]5C[C@@H]5F)C4)ncc3c(N)c2F)cnc2c1NCCO2` (single isomer, unassigned) [Compound 545a], the Ki (read-out: HPK1 Ki) was found to be 0.021 nM.

Compound `Cc1c(-c2cc3cc(NC(=O)O[C@@H]4CN(C)C[C@H]4F)ncc3c(N)c2F)cnc2c1NCCO2` [Compound 452b, (3R,4R)-4-Fluoro-1-methylpyrrolidin-3-yl (8-amino-7-fluoro-6-(8-methyl-2,3-dihydro-1H-pyrido[2,3-b][1,4]oxazin-7-yl)isoquinolin-3-yl)carbamate] gave a Ki (HPK1 Ki) of 0.036 nM.

Take `Cc1c(-c2cc3cc(NC(=O)O[C@H]4CCCNC4)ncc3c(N)c2F)cnc2c1NCCO2` (single isomer, unassigned) [Compound 408a]: the Ki (read-out: HPK1 Ki) was determined as 0.089 nM.

With `Cc1c(-c2cc3cc(NC(=O)O[C@H]4CC(=O)N(C)C4)ncc3c(N)c2F)cnc2c1NCCC2` (single isomer, unassigned) [Compound 481a], the Ki (read-out: HPK1 Ki) was determined as 0.184 nM.

As for `Cc1c(-c2cc3cc(NC(=O)O[C@H]4CC[C@@H]4O)ncc3c(N)c2F)cnc2c1NCCO2` [Compound 542c, (1S,2S)-2-Hydroxycyclobutyl (8-amino-7-fluoro-6-(8-methyl-2,3-dihydro-1H-pyrido[2,3-b][1,4]oxazin-7-yl)isoquinolin-3-yl)carbamate hydrochloride], the affinity (HPK1 Ki) corresponds to a Ki of 0.021 nM.

As for `Cc1c(-c2cc3cc(NC(=O)OC4CCOCC4)ncc3c(N)c2F)cnc2c1[C@H](O)CCO2` (single isomer, unassigned) [Compound 412b], the Ki (read-out: HPK1 Ki) was 0.29 nM.

In the case of `CO[C@H]1COCC[C@@H]1OC(=O)Nc1cc2cc(-c3cnc4c(c3C)NCCO4)c(F)c(N)c2cn1` (single isomer, unassigned) [Compound 583a], the Ki (read-out: HPK1 Ki) turned out to be 0.12 nM.

Turning to `CC(=O)N1CC[C@@H](OC(=O)Nc2cc3cc(-c4cnc5c(c4C)NCCO5)c(F)c(N)c3cn2)C1` (single isomer, unassigned) [Compound 418a], for the setting “read-out: HPK1 Ki”, the Ki was below 0.013 nM.

With `CC(=O)O[C@]1(C)C[C@H](OC(=O)Nc2cc3cc(-c4cnc5c(c4C)NCCO5)c(F)c(N)c3cn2)C1` [Compound 529b, (1s,3s)-3-(((8-Amino-7-fluoro-6-(8-methyl-2,3-dihydro-1H-pyrido[2,3-b][1,4]oxazin-7-yl)isoquinolin-3-yl)carbamoyl)oxy)-1-methylcyclobutyl acetate], the Ki (read-out: HPK1 Ki) was found to be 0.019 nM.

`Cc1c(-c2cc3cc(NC(=O)N[C@@H]4CCCOC4)ncc3c(N)c2F)cnc2c1NCCO2` (single isomer, unassigned) [Compound 711b]: the inhibitory constant (Ki) (read-out: HPK1 Ki) is below 0.013 nM.

Regarding `Cc1c(-c2cc3cc(NC(=O)SC4CCOCC4)ncc3c(N)c2F)cnc2c1NCCO2` [Compound 601, S-Tetrahydropyran-4-yl N-[8-amino-7-fluoro-6-(8-methyl-2,3-dihydro-1H-pyrido[2,3-b][1,4]oxazin-7-yl)-3-isoquinolyl]carbamothioate], for the setting “read-out: HPK1 Ki”, the Ki was below 0.013 nM.

Turning to `Cc1c(-c2cc3cc(NC(=O)O[C@H]4CC(=O)N(C)C4)ncc3c(N)c2F)cnc2c1NCCO2` (single isomer, unassigned) [Compound 410a], where the note is “read-out: HPK1 Ki”, the Ki was found to be 0.167 nM.

`Cc1c(-c2cc3cc(NC(=O)O[C@H]4C[C@H](C(F)F)C4)ncc3c(N)c2F)cnc2c1NCCO2` [Compound 577b, (1r,3r)-3-(difluoromethyl)cyclobutyl (8-amino-7-fluoro-6-(8-methyl-2,3-dihydro-1H-pyrido[2,3-b][1,4]oxazin-7-yl)isoquinolin-3-yl)carbamate]: the Ki (read-out: HPK1 Ki) is below 0.013 nM.

`Cc1c(-c2cc3cc(NC(=O)O[C@H]4CO[C@@]5(CCN(C)C5)C4)ncc3c(N)c2F)cnc2c1NCCO2` (single isomer, unassigned) [Compound 467d]: under “read-out: HPK1 Ki”, the Ki is below 0.013 nM.

As to `Cc1c(-c2cc3cc(NC(=O)O[C@H]4COC[C@@H]4C4CC4)ncc3c(N)c2F)cnc2c1NCCO2` (single isomer, unassigned) [Compound 516a], under “read-out: HPK1 Ki”, the Ki worked out at 0.031 nM.

In the case of `Cc1c(-c2cc3cc(NC(=O)O[C@H]4C[C@H](CO)C4)ncc3c(N)c2F)cnc2c1NCCO2` [Compound 571a, (1r,3r)-3-(Hydroxymethyl)cyclobutyl (8-amino-7-fluoro-6-(8-methyl-2,3-dihydro-1H-pyrido[2,3-b][1,4]oxazin-7-yl)isoquinolin-3-yl)carbamate], under “read-out: HPK1 Ki”, the Ki was determined as 0.014 nM.

Take `Cc1c(-c2cc3cc(NC(=O)NC4CCC4)ncc3c(N)c2F)cnc2c1NCCO2` [Compound 707, 1-(8-Amino-7-fluoro-6-(8-methyl-2,3-dihydro-1H-pyrido[2,3-b][1,4]oxazin-7-yl)isoquinolin-3-yl)-3-cyclobutylurea]: the Ki (read-out: HPK1 Ki) was below 0.013 nM.

As to `Cc1c(-c2cc3cc(NC(=O)OC4CCN(CC(F)(F)F)CC4)ncc3c(N)c2F)cnc2c1NCCO2` [Compound 422, 1-(2,2,2-Trifluoroethyl)piperidin-4-yl (8-amino-7-fluoro-6-(8-methyl-2,3-dihydro-1H-pyrido[2,3-b][1,4]oxazin-7-yl)isoquinolin-3-yl)carbamate], the Ki (read-out: HPK1 Ki) stood at 0.023 nM.
